Measured values as given in the supplement of paper PMC10307832.

Assays:
Assay in all cases: relative viability (nuclei count vs DMSO), 5 days (fraction); higher = more cells survive
Avagacestat + Vorinostat = compound: NC(=O)[C@@H](CCC(F)(F)F)N(Cc1ccc(-c2ncon2)cc1F)S(=O)(=O)c1ccc(Cl)cc1 [Avagacestat] + O=C(CCCCCCC(=O)Nc1ccccc1)NO [Vorinostat] (partner 1 µM)
Summary of the method: (§1)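 Relative viability is defined as nuclei in treated wells over nuclei in vehicle wells. Duplicate plates were run and medians reported. Lung cancer cell lines in 1536-well plates were dosed by pin tool one day after seeding, with one drug or with a fixed anchor-drug dose plus five library-drug doses (not always all listed) in √10 steps, and nuclei were counted after 5 days.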

Avagacestat + Pemetrexed = compound: NC(=O)[C@@H](CCC(F)(F)F)N(Cc1ccc(-c2ncon2)cc1F)S(=O)(=O)c1ccc(Cl)cc1 [Avagacestat] + Nc1nc2[nH]cc(CCc3ccc(C(=O)N[C@@H](CCC(=O)O)C(=O)O)cc3)c2c(=O)[nH]1 [Pemetrexed] (partner 0.2 µM)
Summary of the method: as §1

Avagacestat + Dasatinib = compound: NC(=O)[C@@H](CCC(F)(F)F)N(Cc1ccc(-c2ncon2)cc1F)S(=O)(=O)c1ccc(Cl)cc1 [Avagacestat] + Cc1nc(Nc2ncc(C(=O)Nc3c(C)cccc3Cl)s2)cc(N2CCN(CCO)CC2)n1 [Dasatinib] (partner 0.075 µM)
Summary of the method: as §1

[1] = compound: NC(=O)[C@@H](CCC(F)(F)F)N(Cc1ccc(-c2ncon2)cc1F)S(=O)(=O)c1ccc(Cl)cc1 [Avagacestat] + CC(=O)c1c(C)c2cnc(Nc3ccc(N4CCNCC4)cn3)nc2n(C2CCCC2)c1=O [Palbociclib] (partner 0.5 µM)
Summary of the method: as §1

Cell Line | relative viability (Avagacestat + Vorinostat; first compound 0.08 µM) | relative viability (Avagacestat + Vorinostat; first compound 0.253 µM) | relative viability (Avagacestat + Vorinostat; first compound 0.8 µM) | relative viability (Avagacestat + Vorinostat; first compound 2.53 µM) | relative viability (Avagacestat + Vorinostat; first compound 8 µM) | relative viability (Avagacestat + Pemetrexed; first compound 0.08 µM) | relative viability (Avagacestat + Pemetrexed; first compound 0.253 µM) | relative viability (Avagacestat + Pemetrexed; first compound 0.8 µM) | relative viability (Avagacestat + Pemetrexed; first compound 2.53 µM) | relative viability (Avagacestat + Pemetrexed; first compound 8 µM) | relative viability (Avagacestat + Dasatinib; first compound 0.08 µM) | relative viability (Avagacestat + Dasatinib; first compound 0.253 µM) | relative viability (Avagacestat + Dasatinib; first compound 0.8 µM) | relative viability (Avagacestat + Dasatinib; first compound 2.53 µM) | relative viability (Avagacestat + Dasatinib; first compound 8 µM) | relative viability ([1]; first compound 0.08 µM) | relative viability ([1]; first compound 0.253 µM) | relative viability ([1]; first compound 0.8 µM) | relative viability ([1]; first compound 2.53 µM) | relative viability ([1]; first compound 8 µM)
NCI-H1793 | 0.841 | 0.985 | 0.773 | 0.865 | 0.993 | 0.907 | 1.03 | 1.07 | 0.94 | 0.785 | 0.445 | 0.383 | 0.319 | 0.282 | 0.337 | 0.348 | 0.324 | 0.331 | 0.263 | 0.316
NCI-H1915 | 0.56 | 0.633 | 0.522 | 0.477 | 0.479 | 0.521 | 0.573 | 0.537 | 0.5 | 0.52 | 0.305 | 0.308 | 0.279 | 0.313 | 0.341 | 0.513 | 0.522 | 0.477 | 0.502 | 0.519
NCI-H1944 | 0.716 | 0.635 | 0.497 | 0.554 | 0.54 | 0.784 | 0.654 | 0.613 | 0.599 | 0.585 | 0.199 | 0.201 | 0.227 | 0.202 | 0.222 | 0.32 | 0.343 | 0.265 | 0.272 | 0.269
NCI-H1975 | 0.823 | 0.866 | 0.765 | 0.694 | 0.628 | 0.312 | 0.325 | 0.316 | 0.291 | 0.308 | 0.395 | 0.478 | 0.386 | 0.402 | 0.384 | 0.688 | 0.633 | 0.887 | 0.599 | 0.536
NCI-H1993 | 0.797 | 0.771 | 0.74 | 0.7 | 0.631 | 0.826 | 0.542 | 0.686 | 0.684 | 0.504 | 0.53 | 0.549 | 0.586 | 0.491 | 0.538 | 0.758 | 0.714 | 0.705 | 0.572 | 0.638
NCI-H2009 | 0.704 | 0.876 | 0.733 | 0.722 | 0.694 | 1.16 | 1.15 | 1.11 | 1.02 | 0.975 | 0.323 | 0.274 | 0.282 | 0.257 | 0.229 | 0.201 | 0.202 | 0.214 | 0.215 | 0.199
NCI-H2023 | 0.625 | 0.554 | 0.617 | 0.471 | 0.6 | 0.322 | 0.221 | 0.302 | 0.257 | 0.221 | 0.564 | 0.643 | 0.563 | 0.419 | 0.422 | 0.363 | 0.327 | 0.33 | 0.316 | 0.294
NCI-H2085 | 0.815 | 0.855 | 0.807 | 0.758 | 0.882 | 0.856 | 0.871 | 1.04 | 0.902 | 0.861 | 0.201 | 0.202 | 0.229 | 0.222 | 0.252 | 0.464 | 0.469 | 0.478 | 0.468 | 0.511
